Data: US20180042919A1, “PARP Inhibitors for the Treatment of Major Depressive Disorder and Related Conditions” (East Tennessee State University Research Foundation, priority 2016, published 2018)

Tests used:
Assay type in all cases: in vivo, rat
Male Sprague-Dawley rats [1] = test: Porsolt swim test (forced swim stress test)
Description: Laboratory Animals: The use of animals for this study was approved by the University Committee on Animal Care at East Tennessee State University. All rats were ordered from Envigo, Inc. (Indianapolis, Ind., USA). Male Sprague-Dawley rats (225-250 g upon arrival) were used as subjects in the Porsolt swim test and were socially housed in groups of 2-3 per cage. Rats used as ‘intruders’ in the social defeat paradigm were individually housed and provided enrichment per the NIH Guidelines for the Care and Use of Animals. Intruder rats were male Sprague-Dawley rats (225-250 g). In addition, a total of 14 female Sprague-Dawley rats weighing 175-199 g upon arrival were obtained for the social defeat paradigm and these rats were socially housed for 6 days in the animal colony prior to fallopian tube ligature, performed as previously described. (Szebeni et al., 2016). Sixteen male Long-Evans hooded rats weighing 250-275 g upon arrival were used as ‘residents’ in the social defeat paradigm. A climate-controlled vivarium was utilized and animals were kept on a 12 h on/12 off light/dark cycle. Porsolt swim test: Different groups of animals were tested in the Porsolt swim test. Rats were treated using the same drug treatment regimen as with the SDS/CUS paradigm, except as noted in the combined drug treatments as noted in the Results. On the eighth day of drug treatment, all animals began behavioral testing in the Porsolt swim test, also known as the forced swim stress test. All animals were tested in black cylinders measuring 36 cm in diameter, and these cylinders were filled with water of 23-25° C. following procedures as reviewed previously (Bogdanova et al., 2013), consistent with the original procedure of Porsolt and coworkers (Porsolt et al., 1978). All animals were given a pre-swim exposure test on the first day of testing, 24 h before the swim test session the following day. On the first day of testing, animals were exposed to the water for 15 min, and on the second day were given a 5 min trial. The two dependent measures used for forced swim stress was the latency to first immobility episode (immobility lasting >5 s) and the total immobility time over the 5 min period, both recorded on the second day of testing. All movements of the animal were recorded by behavioral scanning software (ANY-maze, Stoelting Co., Wood Dale, Ill., USA). Drug administration: All drugs used in the study, 3-aminobenzamide (Product no. A0788; 3-AB), 5-AIQ hydrochloride (Product no. […] F132), were obtained from Sigma-Aldrich, Inc. (St. Louis, Mo., USA). Statistical analysis: A Grubb's test was used to remove statistical outliers from each dataset prior to analyses. Statistical analyses were otherwise performed as indicated using IBM SPSS Statistics (version 23.0) and data were graphed using GraphPad Prism (version 5.0b, GraphPad Software, La Jolla, Calif.). An independent sample t-test was used to analyze data generated when only two groups were analyzed. An analysis of variance (ANOVA) was used to test multiple group comparisons. For post hoc statistical comparisons, a Bonferroni-correction was applied (as noted) to limit Type I error in multiple post-hoc comparisons. For the combined drug treatment experiment, ANOVA was followed by a Dunnett's Multiple Comparison test that focused comparisons of drug treatment groups to the vehicle control group. All data are expressed as mean±standard error of the mean.

Male Sprague-Dawley rats [2] = test: Sucrose preference in rats exposed to repeated social defeat stress plus chronic unpredictable stress; settings: 2 h prior to social defeat, vs stressed rats treated with vehicle
Protocol: (§1) Social Defeat Stress (SDS): SDS was induced as described previously (Covington and Miczek, 2001; Szebeni et al., 2016). Briefly, Long-Evans hooded rats (‘residents’) were each mated with a female (ligated) rat for a 7-day period. On the eighth day and after removal of the female, an ‘intruder’ rat was placed into the cage for a 5 min period and dominance was established by the resident. Defeat was produced between 0900 and 1000 h daily for 10 consecutive days. Control rats not exposed to defeat were handled each day during this same time period.
(§2) Chronic unpredictable stress (CUS): CUS was performed after SDS on the same day, but at random times either during the day or evening as previously described (Bondi et al., 2008; Szebeni et al., 2016). Different stressors were randomly arranged and occurred at random times during the light or dark cycle of each day for 10 consecutive days. […]
Sucrose Preference: Sucrose preference was performed during the final three days of induction of social defeat stress (days 8-10), using a procedure based on that of D'Aquila et al. (1997). […] Amounts of sucrose consumed were calculated as percentages of the total amount of fluid consumed during the 2 h period on each of the 3 days of testing. […] The preference of sucrose over water was used as a measure of animal's sensitivity to reward and expressed as a percent. […]

Male Sprague-Dawley rats [3] = test: Social interaction test in rats exposed to repeated social defeat stress plus chronic unpredictable stress
Protocol: as §1
as §2, with “days. All rats were exposed twice to each of 5 different stressors, which included a 30-min restraint, a 1-h shaking/crowding, 10-min cold water (18° C.) swim, a 15-min warm water swim (25° C.) and a 24-h tipped cage.” for “days.”
Social interaction test: The social interaction test was performed 24 h after the last social defeat stress on day 11 of behavioral testing. […] The amount of time spent in a defined interaction zone close to the metal divider was measured using ANYmaze video tracking (Stoelting Co., Wood Dale Ill., USA). […]

[4] = third experiment, 4 mg/kg i.p. 3 times over 24 h, alone, Dunnett's test vs vehicle
[5] = third experiment, 2.5 mg/kg i.p. 3 times over 24 h, alone, Dunnett's test vs vehicle

## NC(=O)c1cccc(N)c1 [3-AB, 3-aminobenzamide]
Male Sprague-Dawley rats [1]; preliminary experiment, 40 mg/kg i.p. daily for 10 days, 2 h after injection, vs saline-treated controls, t=2.36, p<0.05
  time spent immobile: significantly decreased
Male Sprague-Dawley rats [1]; preliminary experiment, 40 mg/kg i.p. daily for 10 days, 2 h after injection, vs saline-treated controls, t=5.56, p<0.001
  latency to immobility: significant increase
Male Sprague-Dawley rats [1]; second experiment, 0.4 mg/kg i.p. once daily for 10 days, vs vehicle control group
  latency to immobility: did not significantly differ
Male Sprague-Dawley rats [1]; second experiment, 4 mg/kg i.p. once daily for 10 days, vs vehicle control group
  latency to immobility: did not significantly differ
Male Sprague-Dawley rats [1]; second experiment, 40 mg/kg i.p. injections 23.5, 5 and 1 h before testing (3-AB×3), vs vehicle control group
  latency to immobility: did not significantly differ
Male Sprague-Dawley rats [1]; second experiment, 40 mg/kg i.p. injections 23.5, 5 and 1 h before testing (3-AB×3), vs vehicle group
  immobility time: significantly less time immobile
Male Sprague-Dawley rats [1]; second experiment, 40 mg/kg i.p. once daily for 10 days, vs vehicle group
  immobility time: significantly less time immobile
Male Sprague-Dawley rats [1]; second experiment, 40 mg/kg i.p. once daily for 10 days, vs vehicle-treated control rats
  latency to immobility: significantly greater
Male Sprague-Dawley rats [1]; [4]
  immobility time: did not significantly affect
  latency to immobility: did not significantly affect
Male Sprague-Dawley rats [2]; 40 mg/kg i.p. daily for 10 days, p=0.024
  sucrose preference: significantly higher
Male Sprague-Dawley rats [3]; 40 mg/kg i.p. daily for 10 days, vs vehicle-treated rats exposed to stressors, p=0.014
  time spent in the interaction zone: significantly greater

## Nc1cccc2c(=O)[nH]ccc12 [5-AIQ, 5-aminoisoquinolinone]
Male Sprague-Dawley rats [1]; second experiment, 0.3 mg/kg i.p. once daily for 10 days, vs vehicle control group
  latency to immobility: did not significantly differ
Male Sprague-Dawley rats [1]; second experiment, 0.3 mg/kg i.p. once daily for 10 days, vs vehicle group
  immobility time: significantly less time immobile

## CNCCC(Oc1ccc(C(F)(F)F)cc1)c1ccccc1 (centres unmarked) [fluoxetine]
Male Sprague-Dawley rats [1]; second experiment, 10 mg/kg i.p. injections 23.5, 5 and 1 h before testing, vs vehicle group
  immobility time: significantly less time immobile
Male Sprague-Dawley rats [1]; second experiment, 10 mg/kg i.p. injections 23.5, 5 and 1 h before testing, vs vehicle-treated control rats
  latency to immobility: significantly greater
Male Sprague-Dawley rats [1]; [5]
  immobility time: did not significantly affect
  latency to immobility: did not significantly affect
Male Sprague-Dawley rats [2]; 10 mg/kg i.p. daily for 10 days, p=0.005
  sucrose preference: significantly higher
Male Sprague-Dawley rats [3]; 10 mg/kg i.p. daily for 10 days, difference vs vehicle-treated rats exposed to stress, appeared greater, p=0.073
  time spent in the interaction zone: did not reach statistical significance
